Here are results for 35 compounds from patent publication US20130165440A1, “JAK1 Inhibitors” (EXELIXIS, INC., priority 2010, published 2013).

The experiment deals with T1, recombinant JAK1 enzyme (Homo sapiens, UniProt P23458).
T1 construct: 8 nM of recombinant JAK1 enzyme (Insect expressed: V866-K1155); host or cells: insect cells
Put plainly: JAK1 Kinase Assay (luciferase-luciferin-coupled chemiluminescence, ATP consumption). Format: biochemical. As to conditions: 8 nM JAK1 (V866-K1155), 30 μM IRS-1 peptide (Y608), 2 μM ATP, 2 hours ambient temperature, KinaseGlo; read-out: JAK1 IRS-1tide Chemilum (IC50). As for the experimental part: JAK1 Kinase Assay Used to Test Compounds
JAK1 Kinase activity was measured as the percent of ATP consumed following the kinase reaction using luciferase-luciferin-coupled chemiluminescence. The reaction was conducted in white medium binding 384-well microtiter plates. The kinase reaction were initiated by combining test compounds, 8 nM of recombinant JAK1 enzyme (Insect expressed: V866-K1155), 30 μM of IRS-1 peptide (Y608) and 2 μM ATP in buffer containing 20 mM Hepes (pH 7.5), 10 mM MgCl2, 0.01% Brij, 5% glycerol and 1 mM DTT in a 20 μL volume. The reaction mixture was incubated at ambient temperature for 2 hours. Following the kinase reaction, a 20 μL aliquot of KinaseGlo was added to stop the reaction and measure remaining ATP via detection of chemiluminescence using the Envison reader. Total ATP consumption was limited to 25-60%.
A general note: In Kinase-Glo more light means more ATP remaining.

Each structure is given as a SMILES string.

T1 sequence (P23458 865-1154 limits assumed): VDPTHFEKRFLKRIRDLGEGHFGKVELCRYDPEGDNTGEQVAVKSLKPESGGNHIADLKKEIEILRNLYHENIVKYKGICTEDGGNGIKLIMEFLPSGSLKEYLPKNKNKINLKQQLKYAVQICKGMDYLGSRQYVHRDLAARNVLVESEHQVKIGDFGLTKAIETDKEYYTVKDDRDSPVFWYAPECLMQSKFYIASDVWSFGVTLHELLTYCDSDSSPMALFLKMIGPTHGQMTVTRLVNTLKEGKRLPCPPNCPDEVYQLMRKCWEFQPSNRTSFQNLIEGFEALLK

By IC50 is commonly meant the concentration at which inhibition is half-maximal. For the compound `CNc1nnc(-c2ccc(-c3nnc(Nc4cc(C(F)(F)F)cc(C(F)(F)F)c4)c4ccccc34)cc2)s1` [Compound 1, N-[3,5-bis(trifluoromethyl)phenyl]-4-{4-[5-(methylamino)-1,3,4-thiadiazol-2-yl]phenyl}phthalazin-1-amine], the IC50 lay in the range of 2000 to 30000 nM. In the case of `COC(=O)c1ccc(-c2nnc(Nc3cccc(C(C)(C)C)c3)c3ccccc23)cc1` [Compound 4, methyl 4-(4-{[3-(1,1-dimethylethyl)phenyl]amino}phthalazin-1-yl)benzoate] it was 500 to 1000 nM. In the case of `O=c1[nH]ccn1-c1ccc(-c2nnc(Nc3cc(C(F)(F)F)cc(C(F)(F)F)c3)c3ccccc23)cc1` [Compound 5, 1-[4-(4-{[3,5-bis(trifluoromethyl)phenyl]amino}phthalazin-1-yl)phenyl]-1,3-dihydro-2H-imidazol-2-one] it was at most 150 nM. Turning to `COC(=O)c1ccc(-c2nnc(Nc3cc(NCCCN(C)C)cc(C(F)(F)F)c3)c3ccccc23)cc1` [Compound 8, methyl 4-(4-{[3-{[3-(dimethylamino)propyl]amino}-5-(trifluoromethyl)phenyl]amino}phthalazin-1-yl)benzoate], the IC50 is 150 to 500 nM. Regarding `NC(=O)c1ccc(-c2nnc(Nc3cc(C(F)(F)F)cc(C(F)(F)F)c3)c3ccccc23)cc1` [Compound 9, 4-(4-{[3,5-bis(trifluoromethyl)phenyl]amino}phthalazin-1-yl)benzamide], the IC50 fell in the range of 1000 to 2000 nM.

In the case of `COC(=O)c1ccc(-c2nnc(Nc3cc(OCCN(C)C)cc(C(F)(F)F)c3)c3ccccc23)cc1` [Compound 10, methyl 4-(4-{[3-{[2-(dimethylamino)ethyl]oxy}-5-(trifluoromethyl)phenyl]amino}phthalazin-1-yl)benzoate], the IC50 fell in the range of 150 to 500 nM. For the compound `CC(=O)c1ccc(-c2nnc(Nc3cc(C(F)(F)F)cc(C(F)(F)F)c3)c3ccccc23)s1` [Compound 12, 1-[5-(4-{[3,5-bis(trifluoromethyl)phenyl]amino}phthalazin-1-yl)-2-thienyl]ethanone], the IC50 was 2000 to 30000 nM.

For `COC(=O)c1ccc(-c2nnc(Nc3cccc(C(F)(F)F)c3)c3cccnc23)cc1` [Compound 13], the IC50 was 500 to 1000 nM. With `COC(=O)c1ccc(-c2nnc(Nc3cc(Cl)cc(C(F)(F)F)c3)c3ccccc23)cc1` [Compound 14, methyl 4-(4-{[3-chloro-5-(trifluoromethyl)phenyl]amino}phthalazin-1-yl)benzoate] the figure was at most 150 nM; with `COC(=O)c1ccc(-c2nnc(Nc3cc(C(=O)OC)cc(C(F)(F)F)c3)c3ccccc23)cc1` [Compound 15, methyl 3-[(4-{4-[(methyloxy)carbonyl]phenyl}phthalazin-1-yl)amino]-5-(trifluoromethyl)benzoate], 2000 to 30000 nM. Consider `COC(=O)c1ccc(-c2nnc(Nc3cccc(Cl)c3)c3ccccc23)cc1` [Compound 16, methyl 4-{4-[(3-chlorophenyl)amino]phthalazin-1-yl}benzoate], for which the IC50 fell in the range of 150 to 500 nM. In the case of `COC(=O)c1ccc(-c2nnc(Nc3cc(C(F)(F)F)cc(C(F)(F)F)c3)c3ccccc23)s1` [Compound 17, methyl 5-(4-{[3,5-bis(trifluoromethyl)phenyl]amino}phthalazin-1-yl)thiophene-2-carboxylate] it was 2000 to 30000 nM; in that of `O=Cc1ccc(-c2nnc(Nc3cc(C(F)(F)F)cc(C(F)(F)F)c3)c3ccccc23)cc1` [Compound 18, 4-(4-{[3,5-bis(trifluoromethyl)phenyl]amino}phthalazin-1-yl)benzaldehyde], 2000 to 30000 nM; in that of `CCc1cc(Nc2nnc(-c3ccc(C(=O)OC)cc3)c3ccccc23)cc(C(F)(F)F)c1` [Compound 19, methyl 4-(4-{[3-ethyl-5-(trifluoromethyl)phenyl]amino}phthalazin-1-yl)benzoate], at most 150 nM. With `COC(=O)c1ccc(-c2nnc(Nc3cc(N4CCN(C)CC4)cc(C(F)(F)F)c3)c3ccccc23)cc1` [Compound 20, methyl 4-(4-{[3-(4-methylpiperazin-1-yl)-5-(trifluoromethyl)phenyl]amino}phthalazin-1-yl)benzoate] the figure was 1000 to 2000 nM; with `CCc1cccc(Nc2nnc(-c3ccc(C(=O)OC)cc3)c3ccccc23)c1` [Compound 21, methyl 4-{4-[(3-ethylphenyl)amino]phthalazin-1-yl}benzoate], 150 to 500 nM. In the case of `COC(=O)c1ccc(-c2nnc(Nc3cc(CCCN(C)C)cc(C(F)(F)F)c3)c3ccccc23)cc1` [Compound 22, methyl 4-[4-({3-[3-(dimethylamino)propyl]-5-(trifluoromethyl)phenyl}amino)phthalazin-1-yl]benzoate] it was at most 150 nM; in that of `O=C1NCCN1c1ccc(-c2nnc(Nc3cc(C(F)(F)F)cc(C(F)(F)F)c3)c3ccccc23)cc1` [Compound 23, 1-[4-(4-{[3,5-bis(trifluoromethyl)phenyl]amino}phthalazin-1-yl)phenyl]imidazolidin-2-one], at most 150 nM; in that of `COC(=O)c1ccc(-c2nnc(Nc3ccc(Cl)c(C(F)(F)F)c3)c3ccccc23)cc1` [Compound 24, methyl 4-(4-{[4-chloro-3-(trifluoromethyl)phenyl]amino}phthalazin-1-yl)benzoate], 500 to 1000 nM. On to `COC(=O)c1ccc(-c2nnc(Nc3ccc(Cl)cc3)c3ccccc23)cc1` [Compound 26], for which the IC50 lay in the range of 1000 to 2000 nM. In the case of `O=C1OCc2cc(-c3nnc(Nc4cc(C(F)(F)F)cc(C(F)(F)F)c4)c4ccccc34)ccc21` [Compound 27, 5-(4-{[3,5-bis(trifluoromethyl)phenyl]amino}phthalazin-1-yl)-2-benzofuran-1(3H)-one] it was 2000 to 30000 nM. For the compound `CC(=O)Nc1ccc(-c2nnc(Nc3cc(C(F)(F)F)cc(C(F)(F)F)c3)c3ccccc23)cc1` [Compound 28, N-[4-(4-{[3,5-bis(trifluoromethyl)phenyl]amino}phthalazin-1-yl)phenyl]acetamide], the IC50 was 500 to 1000 nM. With `COC(=O)c1ccc(-c2nnc(Nc3cccc(C(F)(F)F)c3)c3cnccc23)cc1` [Compound 29, methyl 4-(4-{[3-(trifluoromethyl)phenyl]amino}pyrido[3,4-d]pyridazin-1-yl)benzoate] the figure was 150 to 500 nM; with `COC(=O)c1ccc(-c2nnc(Nc3cc(CN(C)C)cc(C(F)(F)F)c3)c3ccccc23)cc1` [Compound 30, methyl 4-[4-({3-[(dimethylamino)methyl]-5-(trifluoromethyl)phenyl}amino)phthalazin-1-yl]benzoate], 500 to 1000 nM. With `COC(=O)c1ccc(-c2nnc(Nc3cc(OC)cc(C(F)(F)F)c3)c3ccccc23)cc1` [Compound 32, methyl 4-(4-{[3-(methyloxy)-5-(trifluoromethyl)phenyl]amino}phthalazin-1-yl)benzoate] the figure was 500 to 1000 nM. With `FC(F)(F)c1cc(Nc2nnc(-c3ccc4cn[nH]c4c3)c3ccccc23)cc(C(F)(F)F)c1` [Compound 33, N-[3,5-bis(trifluoromethyl)phenyl]-4-(1H-indazol-6-yl)phthalazin-1-amine] the figure was at most 150 nM; with `COC(=O)c1ccc(-c2nnc(Nc3ccc(OC)c(C(F)(F)F)c3)c3ccccc23)cc1` [Compound 34, methyl 4-(4-{[4-(methyloxy)-3-(trifluoromethyl)phenyl]amino}phthalazin-1-yl)benzoate], 500 to 1000 nM; with `COC(=O)c1ccc(-c2nnc(Nc3cc(F)cc(C(F)(F)F)c3)c3ccccc23)cc1` [Compound 35, methyl 4-(4-{[3-fluoro-5-(trifluoromethyl)phenyl]amino}phthalazin-1-yl)benzoate], 150 to 500 nM. Turning to `COC(=O)c1ccc(-c2nnc(Nc3cc(NCCN(C)C)cc(C(F)(F)F)c3)c3ccccc23)cc1` [Compound 36, methyl 4-(4-{[3-{[2-(dimethylamino)ethyl]amino}-5-(trifluoromethyl)phenyl]amino}phthalazin-1-yl)benzoate], the concentration for half-maximal inhibition (IC50) lay in the range of 150 to 500 nM. With `Nc1n[nH]c2cc(-c3nnc(Nc4cc(C(F)(F)F)cc(C(F)(F)F)c4)c4ccccc34)ccc12` [Compound 38, 4-(3-amino-1H-indazol-6-yl)-N-[3,5-bis(trifluoromethyl)phenyl]phthalazin-1-amine] the figure was at most 150 nM; with `COC(=O)c1ccc(-c2nnc(Nc3cccc(C(F)(F)F)c3)c3ncccc23)cc1` [Compound 39, methyl 4-(8-{[3-(trifluoromethyl)phenyl]amino}pyrido[2,3-d]pyridazin-5-yl)benzoate], 2000 to 30000 nM; with `O=C(O)c1ccc(-c2nnc(Nc3cc(C(F)(F)F)cc(C(F)(F)F)c3)c3ccccc23)cc1` [Compound 40, 4-(4-{[3,5-bis(trifluoromethyl)phenyl]amino}phthalazin-1-yl)benzoic acid], 2000 to 30000 nM. In the case of `COC(=O)c1ccc(-c2nnc(Nc3cccc(OC(F)(F)F)c3)c3ccccc23)cc1` [Compound 43, methyl 4-[4-({3-[(trifluoromethyl)oxy]phenyl}amino)phthalazin-1-yl]benzoate], the IC50 is 150 to 500 nM. In the case of `COC(=O)c1ccc(-c2nnc(Nc3cc(Br)cc(C(F)(F)F)c3)c3ccccc23)cc1` [Compound 44, methyl 4(4-{[3-bromo-5-(trifluoromethyl)phenyl]amino}phthalazin-1-yl)benzoate] it was 150 to 500 nM; in that of `FC(F)(F)c1cc(Nc2nnc(-c3ccc4nn[nH]c4c3)c3ccccc23)cc(C(F)(F)F)c1` [Compound 45, 4-(1H-1,2,3-benzotriazol-6-yl)-N-[3,5-bis(trifluoromethyl)phenyl]phthalazin-1-amine], 1000 to 2000 nM.
